# In patent US12629410B2, “Multi-antigenic peptide mimics of gonococcal lipo-oligosaccharide (LOS) epitopes” (priority 2019, dated 2026):
# Bridges are numbered along the chain shown (N, C = ends).
# System: mAb 2C7
# Experiment: Inhibition ELISA: inhibition of mAb 2C7 binding to immobilized gonococcal LOS
# Description: FIGS. 1A-1B show the structure and characterization of one of the peptide mimics described herein (also referred to as TMCP2). […] The 2C7 mimitope is indicated in shown as the sequence “H2C-CO-GPIPVLDENGLFAPGPC” (SEQ ID NO: 1) Cyclization is maintained through a thioether bond. The reverse peptide mimic core is represented the schematic of the peptide mimic as “Ac-β-Ala-Glu[Glu-OH]2.” The reverse peptide mimic core links to each cyclic peptide through a lysine (K) residue.
# In order to compare antigenicity of peptide mimic Core Peptide 2 (monomeric cyclic CP2) and composite TMCP2 compounds with LOS that expresses the 2C7 epitope, inhibition ELISA was performed using mAb 2C7 reacted with the individual compounds to assess inhibition of binding (residual binding) of mAb to LOS by each compound. Microtiter wells were coated with LOS (80 μg/ml in PBS) purified from strain FA1090. Wells were washed and blocked with PBS-0.05% Tween 20. mAb 2C7 (0.04 μg/ml) either alone or containing monomeric cyclic peptide CP2 (1.07 to 1070 μM) or composite TMCP2 (concentrations ranging from […]) was dispended into LOS coated wells. Residual binding of 2C7 mAb was measured with anti-mouse IgG conjugated to alkaline phosphatase. Bound IgG was quantitated using a mouse IgG standard curve and percent inhibition determined compared to reaction mixtures that […].
# Attempts to measure mAb 2C7 (7) binding directly to immobilized peptide mimic Core Peptide 2 (abbreviated CP2 in FIG. 1A) and composite TMCP2 by ELISA were not successful. The possibility of poor capture of the peptides by the microtiter wells was considered and therefore used an ELISA to measure inhibition of binding (residual binding) of mAb 2C7 to immobilized gonococcal LOS that had been reacted with increasing concentrations of the peptides (FIG. 1B).
substance,measurement,setting,value
[(CH2-CO-GPIPVLDENGLFAPGPC)-K-OH]4 ({CH2CO}-GPIPVLDENGLFAPGPCK-OH; thioether N-17; also: tetrameric MAP) [TMCP2],fold lower molar concentration of TMCP2 (compared to CP2) required to achieve 50% inhibition,,~4 fold
same,IC50,"mAb 2C7 0.04 μg/ml, LOS-coated wells, read-out: concentration giving 50% inhibition of mAb 2C7 binding to immobilized 15253 LOS",25 µM
